Test results taken from paper PMC10589313 (Nature Communications, 2023).
Where “and” joins values, the source holds several entries; their conditions need not be identical. Equal values may be shown once.

Tests used:
Format in all cases: cell-based
human H4R W348A mutant = target: T1, human H4R W348A mutant (Homo sapiens, UniProt Q9H3N8, W348A); assay: TGFα shedding assay, H4R W348A mutant
T1 construct: a mutant H4R (human, full-length, and untagged); expressed in transfected cells; host or cells: HEK293A
Experimental: (§1) The mutants were prepared using the primers listed in Supplementary Table 2. […] The chimeric Gαq/i1 subunit comprises the Gαq backbone and Gαi1-derived six-amino acid C-terminus and couples with Gi-coupled H4R but induces a Gq-dependent TGFα shedding response. After culturing for 1 day and incubating at 37 °C in a 5% CO2 incubator, the transfected cells were harvested by trypsinization, neutralized with Dulbecco’s modified Eagle’s medium containing 10% fetal calf serum (FCS) and penicillin–streptomycin, washed once with Hank’s balanced salt solution (HBSS) containing 5 mM of HEPES (pH 7.4), and resuspended in 6 mL of the HEPES-containing HBSS. The cell suspension was seeded into a 96-well plate at a volume of […] per well (typically, 48 wells per transfected cells) and incubated for 30 min in the CO2 incubator. Test compounds (10×, diluted in 0.01% BSA and 5 mM of HEPES-containing HBSS, […] volume) were added to duplicate wells and incubated for 1 h. After centrifugation, the conditioned medium ([…]) was transferred to an empty 96-well plate. AP reaction solution [10 mM of p-nitrophenylphosphate (p-NPP), 120 mM of Tris–HCl (pH 9.5), 40 mM of NaCl, and 10 mM of MgCl2] was dispensed into the cell culture plates and plates containing conditioned media ([…]). Absorbance was measured at 405 nm before and after a 1-h incubation period at 25 °C using a microplate reader (iMark™ Microplate Absorbance Reader; BioRad). Ligand-induced AP-TGFα release was calculated as previously described. The vehicle-treated AP-TGFα release signal was set as a baseline unless otherwise specified. AP-TGFα release signals were fitted with a four-parameter sigmoidal concentration-response curve, from which EC50 and Emax values were obtained, using GraphPad Prism 9 software (GraphPad Prism). Negative values of logarithmically transformed EC50 values (pEC50) were used to calculate the mean and standard error of independent experiments.
All functional study data were analyzed using Prism 9 (GraphPad) and are presented as mean ± standard error of the mean (SEM) of three independent experiments. […]

human H4R N147W mutant = target: T2, human H4R N147W mutant (Homo sapiens, UniProt Q9H3N8, N147W); assay: TGFα shedding assay, H4R N147W mutant; details: for EC50: EC50 (nM)
T2 construct: a mutant H4R (human, full-length, and untagged); expressed in transfected cells; host or cells: HEK293A
Experimental: as §1
(§2) All functional study data were analyzed using Prism 9 (GraphPad) and are presented as mean ± standard error of the mean (SEM) of three independent experiments. Statistical analyses were performed using Prism 9 (GraphPad) with one-way analysis of variance followed by Dunnett’s post-hoc test. Values with p < 0.05 are considered statistically significant.

human H4R Y319A mutant = target: T3, human H4R Y319A mutant (Homo sapiens, UniProt Q9H3N8, Y319A); assay: TGFα shedding assay, H4R Y319A mutant
T3 construct: a mutant H4R (human, full-length, and untagged); expressed in transfected cells; host or cells: HEK293A
Experimental: as §1, §2

[1] = Imetit (M) -5 (log concentration), raw replicate values

T2 sequence (Q9H3N8 whole entry N147W): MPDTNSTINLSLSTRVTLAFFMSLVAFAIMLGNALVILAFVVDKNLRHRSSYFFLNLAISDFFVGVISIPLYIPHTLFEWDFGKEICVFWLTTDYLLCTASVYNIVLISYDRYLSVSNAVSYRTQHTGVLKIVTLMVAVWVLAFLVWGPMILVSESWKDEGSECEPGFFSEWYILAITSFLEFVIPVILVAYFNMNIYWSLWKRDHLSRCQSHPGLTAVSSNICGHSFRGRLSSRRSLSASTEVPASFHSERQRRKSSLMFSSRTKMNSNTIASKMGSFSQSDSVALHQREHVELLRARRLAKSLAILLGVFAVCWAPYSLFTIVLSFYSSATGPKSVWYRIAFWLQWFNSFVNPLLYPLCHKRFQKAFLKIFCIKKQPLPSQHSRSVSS
T1 sequence (Q9H3N8 whole entry W348A): as the sequence (Q9H3N8 whole entry N147W) above, with W147N, W348A counted along it
T3 sequence (Q9H3N8 whole entry Y319A): as the sequence (Q9H3N8 whole entry N147W) above, with W147N, Y319A counted along it

In the case of N=C(N)SCCc1cnc[nH]1 [Imetit, imetit], the EC50 (human H4R W348A mutant) is reported as over 10000 nM, the “Shedding assay response, W348A” value (human H4R W348A mutant; [1]) is reported as 2.59 and 2.574 and 7.329 and -2.233 and 0.1771 and -0.5753 and 0.3498 and -1.339 and 0.3261 and the EC50 (human H4R N147W mutant; N147W mutant) is reported as 603 nM. The EC50 (human H4R N147W mutant; N147W, single experiments, source data Figure 4e-f) was 569 nM and 612 nM and 627 nM, the “Shedding assay response, N147W” value (human H4R N147W mutant; [1]) was 17.8239 and 17.9174 and 17.7465 and 15.1009 and 14.2938 and 15.4251 and 18.7186 and 19.6688 and 18.9313 and the fold of change (human H4R N147W mutant; N147W mutant, EC50 relative to WT) was 20.2 fold. For the same molecule, the Emax (human H4R N147W mutant; read-out: Emax (%) mean ± SEM) was 18.4 ± 1.29%, the EC50 (human H4R Y319A mutant; EC50 (nM), Y319A mutant) was 159 nM and the “Shedding assay response, Y319A” value (human H4R Y319A mutant; [1]) was 15.1866 and 16.9873 and 18.1596 and 17.4201 and 15.3203 and 22.2497 and 14.1035 and 13.1515 and 10.7745. For the same molecule, the fold of change (human H4R Y319A mutant; Y319A mutant, EC50 relative to WT) was 5.3 fold, the EC50 (human H4R Y319A mutant; pEC50 mean ± SEM, Y319A mutant) was 141 nM and the Emax (human H4R Y319A mutant; read-out: Emax (%) mean ± SEM) was 15.8 ± 1.58%.
